Source: PubChem BioAssay (NCI)
“And” between values parts separate entries of the source, which are not always exact repeats. Equal values may be shown once.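 48-hour exposure; five concentrations; linearly interpolated endpoints. GI50 = concentration required for 50% inhibition of growth. Definition used: TGI = concentration required for complete inhibition of growth.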

What was measured:
Test in all cases: growth of human tumour cells (NCI), 48 h
COLO 205 colon = test system: COLO 205 colon
DMS 114 small cell lung = test system: DMS 114 small cell lung
DMS 273 small cell lung = test system: DMS 273 small cell lung
KM12 colon = test system: KM12 colon
KM20L2 colon = test system: KM20L2 colon
RPMI-8226 leukemia = test system: RPMI-8226 leukemia
SF-295 CNS = test system: SF-295 CNS
SF-539 CNS = test system: SF-539 CNS
SK-OV-3 ovarian = test system: SK-OV-3 ovarian
UO-31 renal = test system: UO-31 renal
T-47D breast = test system: T-47D breast

SMILES | TGI (COLO 205 colon) | TGI (DMS 114 small cell lung) | TGI (DMS 273 small cell lung) | TGI (KM12 colon) | TGI (KM20L2 colon) | TGI (RPMI-8226 leukemia) | TGI (SF-295 CNS) | TGI (SF-539 CNS) | TGI (SK-OV-3 ovarian) | TGI (UO-31 renal) | GI50 (COLO 205 colon) | GI50 (KM12 colon) | GI50 (KM20L2 colon) | GI50 (SF-539 CNS) | TGI (T-47D breast) | GI50 (UO-31 renal) | GI50 (RPMI-8226 leukemia)
Brc1ccc(C[P+]2(c3ccccc3)CCCCC2)cc1 | > 100 µM | > 100 µM | > 100 µM | > 100 µM | > 100 µM | > 100 µM | > 100 µM | > 100 µM | > 100 µM | > 100 µM |  |  |  |  |  |  | 
O=C(N/N=C/c1cc(Cl)cc(Cl)c1[O-])c1ccccc1O.O=C(N/N=C/c1cc(Cl)cc(Cl)c1[O-])c1ccccc1O.[Co+2] | 18.3 µM |  |  | 19.1 µM | 7.43 µM |  | 12.9 µM | 5.68 µM | 6.45 µM | 6.72 µM | 3.8 µM | 0.963 µM | 2.14 µM | 0.486 µM |  |  | 
CCC1(N=[N+]=[N-])C(=O)c2ccccc2N(C)C1=O (stereo not drawn) | > 100 µM | > 100 µM | > 100 µM | > 100 µM | > 100 µM |  | > 100 µM | > 100 µM | > 100 µM | > 100 µM |  |  |  |  |  |  | 
O=C(c1nc2ccc([N+](=O)[O-])cc2[nH]c1=O)C(O)c1ccc2c(c1)OCO2 (stereo not drawn) | > 100 µM | > 100 µM | > 100 µM | > 93 µM | > 100 µM | > 100 µM | > 100 µM | > 100 µM | > 100 µM | > 100 µM |  |  |  |  | > 100 µM |  | 
COc1ccc(C(=O)O[C@H]2[C@@H]3C=CO[C@@H](OC4OC(CO)C(O)C(O)C4O)[C@@H]3[C@@]3(CO)O[C@@H]23)cc1O (stereo partly drawn) | > 100 µM | > 100 µM | > 100 µM | > 100 µM | > 100 µM | > 100 µM | > 100 µM | > 100 µM | > 100 µM | > 100 µM |  |  |  |  |  |  | 
CCN(CC)CCCNc1ccc2nc(C)n3c4ccc(O)cc4c(=O)c1c23 | 20.3 µM | 21.5 µM | 13.4 µM | 17.4 µM | 17.1 µM | 10.8 µM | 19.6 µM | 22.7 µM | 25.2 µM | 19.3 µM |  |  |  |  | 31.4 µM |  | 
COc1ccc(C(c2c(O)c3ccccc3n(-c3ccccc3)c2=O)c2c(O)c3ccccc3n(-c3ccccc3)c2=O)cc1 | > 100 µM | > 100 µM | > 100 µM | > 100 µM | > 100 µM | > 100 µM |  | > 100 µM |  | > 100 µM |  |  |  |  |  |  | 
Cc1c2ccncc2cc2c1[nH]c1ccccc12 | 7.72 µM | 16.9 µM | 4.96 µM | 23.9 µM | 22.4 µM | 8.7 µM | 16.9 µM | 5.17 µM | 26.1 µM | 9.89 µM |  |  |  |  |  |  | 
CN(Cc1cnc2nc(N)nc(N)c2n1)c1ccc(C(=O)N[C@@H](CCC(=O)O)C(=O)O)cc1 | 249 µM and > 250 µM | 191 µM | 210 µM | 239 µM and > 250 µM | > 250 µM | > 250 µM | 231 µM and > 250 µM |  | > 250 µM | 148 µM |  |  | 0.0025 µM |  | > 250 µM | 0.0454 µM | 
O=C(/C=C/c1cccc(Oc2ccccc2)c1)NCc1ccc(C(=O)NCc2ccccc2)cc1 | > 100 µM |  |  | > 100 µM |  | > 100 µM | 79.4 µM | > 100 µM | 29.8 µM | > 100 µM |  |  |  |  | > 100 µM |  | 
CC(NC(=O)NC(C)(C)C)NC(=O)C(N)CC(=O)O (stereo not drawn) | > 100 µM |  |  | > 100 µM |  | > 100 µM | > 100 µM | > 100 µM | > 100 µM | > 100 µM |  |  |  |  | > 100 µM |  | 
CCOc1ccc2[nH]c3c(C)c4ccncc4c(C)c3c2c1 | 3.04 µM | 3.01 µM | 1.64 µM | 2.22 µM | 2.56 µM |  | 2.19 µM | 2.94 µM | 16.4 µM | 13.9 µM |  |  |  |  |  |  | 
c1cc2c(cc1NC1=NCCO1)OCO2 | > 100 µM |  |  | > 100 µM |  | > 100 µM | > 100 µM | > 100 µM | > 100 µM | > 100 µM |  |  |  |  | > 100 µM |  | 
CC(C)(C)OC(=O)NC1CC2(C=C(Br)C(=O)C(Br)=C2)OC1=O (stereo not drawn) | 13.4 µM |  |  | 45.1 µM |  | 4.21 µM | 38.9 µM | 42.5 µM | 32.1 µM | 13.8 µM |  |  |  |  | 6.39 µM |  | 
Nc1[nH]nc(Nc2ccc(Cl)cc2)c1P(=O)(c1ccccc1)c1ccccc1 | > 100 µM |  |  | 37.5 µM |  | > 100 µM | 44.5 µM | 42.6 µM | > 100 µM | > 100 µM |  |  |  |  | > 100 µM |  | 
CN(C)c1ccc(/C=C2\N=C(NNc3ccccc3)NC2=O)cc1 | 29 µM |  |  | 32.6 µM |  | 40.1 µM | 83.4 µM | 43.3 µM | > 100 µM | > 100 µM |  |  |  |  | 38.8 µM |  | 
C=C(C(=O)O)[C@@H]1C[C@@H]2O[C@H]1[C@@H](O)[C@@H](C)CCCC(C)=CCC[C@@]2(C)O | > 100 µM |  |  | > 100 µM |  | > 100 µM | > 100 µM | > 100 µM | > 100 µM | > 100 µM |  |  |  |  | > 100 µM |  | 25 µM and 55.9 µM
Cc1ccccc1OC(C)C(=O)NN1C(=O)CSC1c1ccc(Cl)cc1 (stereo not drawn) | > 100 µM |  |  | > 100 µM |  | > 61 µM | > 61.3 µM | > 63.1 µM | > 92.5 µM | > 100 µM |  |  |  |  | > 100 µM |  | 
CC(=O)OCC1OC(n2cc(F)c(=O)[nH]c2=O)C(NC(=O)OCc2ccccc2)C(OC(C)=O)C1OC(C)=O (stereo not drawn) |  | > 100 µM | > 100 µM | > 100 µM | > 100 µM | > 100 µM | > 100 µM | > 100 µM | > 100 µM | > 100 µM |  |  |  |  |  |  | 
CN(C(=O)C12C3C4C5C3C1(C(=O)C13C6C7C8C6C1C8C73)C5C42)C(C)(C)C (stereo not drawn) | > 50 µM | > 37.6 µM | > 30 µM | > 50 µM | > 50 µM | > 42.9 µM | > 50 µM | > 50 µM | > 50 µM | > 50 µM |  |  |  |  |  |  | 
NC1=C(NC(=O)Cc2ccccc2F)C(=O)c2ccccc2C1=O | > 100 µM | > 100 µM | > 100 µM | > 100 µM | > 100 µM | > 100 µM | > 100 µM | 62 µM |  | > 100 µM |  |  |  |  |  |  | 
CN(C)CCNC(=O)c1ccc(NCCCN(C)CCCNc2ccc(C(=O)NCCN(C)C)c3[nH]c4ccccc4c(=O)c23)c2c(=O)c3ccccc3[nH]c12 | 0.294 µM |  |  | 0.627 µM |  | 0.419 µM | 1.31 µM | 2.24 µM | 0.427 µM | 1.9 µM |  |  |  |  | 1.85 µM |  | 
O=S(=O)(Nc1nc2ccccc2nc1Nc1ccc2ccccc2c1)c1ccccc1 | 26.3 µM |  |  | > 59.3 µM |  | > 47 µM | 47.3 µM | 45.8 µM | > 100 µM | 39.5 µM |  |  |  |  | > 100 µM |  | 
Cc1nc(C)c(N2CCN(S(=O)(=O)N(Cc3ccccc3)Cc3ccccc3)CC2)c(=O)[nH]1 | > 100 µM |  |  | > 100 µM |  | > 100 µM | > 83.6 µM | 42.5 µM | > 54.2 µM | > 100 µM |  |  |  |  | > 85.7 µM |  | 
N#CN/C(N)=N/C/N=C(\N)NC#N | > 100 µM | > 100 µM | > 100 µM | > 100 µM | > 100 µM | > 100 µM | > 100 µM | > 100 µM | > 100 µM | > 100 µM |  |  |  |  |  |  | 
O=C1CC2CC3OC3[C@H]3c4cc5c(cc4C(=O)N1C23)OCO5 (stereo partly drawn) | > 100 µM | > 100 µM | > 100 µM | > 100 µM | > 100 µM | > 100 µM | > 100 µM | > 100 µM | > 100 µM | > 100 µM |  |  |  |  |  |  | 
